Where a name gives a salt, the structure may show the parent alone.
system: Acinetobacter baumannii ATCC17961; experiment: Antimicrobial susceptibility testing: 90% growth inhibitory concentration (IC90) determination in Iso-Sensitest broth, OD600 growth; type: cell-based; conditions: Acinetobacter baumannii, ATCC17961, 16 h, read-out: A. baumannii ATCC 17961 IC90 (uM), strain ATCC 17961, OD600 growth over 16 h
Summary of the method: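 Serial twofold dilution, 10 points, e.g. 50–0.097 μM final; ~5×10^(5) CFU/ml; 35±2° C, 16 h; kinetic OD600 every 20 min; IC90 from log-phase inhibition.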

`CCc1cc(Nc2nccn3c(-c4cn(CC#N)nc4C(F)(F)F)cnc23)ccc1C(=O)NCC(=O)N1CCNC(C)C1` (stereo not shown) [Example 507, 4-[[3-[1-(cyanomethyl)-3-(trifluoromethyl)pyrazol-4-yl]imidazo[1,2-a]pyrazin-8-yl]amino]-2-ethyl-N-[2-(3-methylpiperazin-1-yl)-2-oxo-ethyl]benzamide formate] and `CCc1cc(Nc2nccn3c(-c4cn(CC#N)nc4C(F)(F)F)cnc23)ccc1C(=O)NCC(=O)N1CCC(CN)C1` (stereo not shown) [Example 509, N-[2-[3-(aminomethyl)pyrrolidin-1-yl]-2-oxo-ethyl]-4-[[3-[1-(cyanomethyl)-3-(trifluoromethyl)pyrazol-4-yl]imidazo[1,2-a]pyrazin-8-yl]amino]-2-ethyl-benzamide formate] are within 1.5-fold of each other in IC90: 0.245 µM for the first, 0.23 µM for the second.

Going from `CCc1cc(Nc2nccn3c(-c4cn(CC#N)nc4C(F)(F)F)cnc23)ccc1C(=O)NCC(=O)N1CC2(CC(N)C2)C1` [Example 508, N-[2-(6-amino-2-azaspiro[3.3]heptan-2-yl)-2-oxo-ethyl]-4-[[3-[1-(cyanomethyl)-3-(trifluoromethyl)pyrazol-4-yl]imidazo[1,2-a]pyrazin-8-yl]amino]-2-ethyl-benzamide formate] to `CCc1cc(Nc2nccn3c(-c4cn(CC#N)nc4C(F)(F)F)cnc23)ccc1C(=O)NCC(=O)N1CCCC1CN` (stereo not shown) [Example 510, N-[2-[2-(aminomethyl)pyrrolidin-1-yl]-2-oxo-ethyl]-4-[[3-[1-(cyanomethyl)-3-(trifluoromethyl)pyrazol-4-yl]imidazo[1,2-a]pyrazin-8-yl]amino]-2-ethyl-benzamide formate], the IC90 rises from 0.198 µM to 0.347 µM (1.8-fold).

`CCc1cc(Nc2nccn3c(-c4cn(CC#N)nc4C(F)(F)F)cnc23)ccc1C(=O)NCC(=O)NC1C2CNCC21` (stereo not shown) [Example 511, N-[2-(3-azabicyclo[3.1.0]hexan-6-ylamino)-2-oxo-ethyl]-4-[[3-[1-(cyanomethyl)-3-(trifluoromethyl)pyrazol-4-yl]imidazo[1,2-a]pyrazin-8-yl]amino]-2-ethyl-benzamide formate] and `CCc1cc(Nc2nccn3c(-c4cn(CC#N)nc4C(F)(F)F)cnc23)ccc1C(=O)NCC(=O)N1CC2CC1CN2` (stereo not shown) [Example 512, 4-[[3-[1-(cyanomethyl)-3-(trifluoromethyl)pyrazol-4-yl]imidazo[1,2-a]pyrazin-8-yl]amino]-N-[2-(2,5-diazabicyclo[2.2.1]heptan-2-yl)-2-oxo-ethyl]-2-ethyl-benzamide formate] are within 1.5-fold of each other in IC90: 0.295 µM for the first, 0.341 µM for the second.

Going from `CCc1cc(Nc2nccn3c(-c4c[nH]nc4C(F)(F)F)cnc23)ccc1C(=O)NCC1CNC1` [Example 513, N-(azetidin-3-ylmethyl)-2-ethyl-4-((3-(3-(trifluoromethyl)-1H-pyrazol-4-yl)imidazo[1,2-a]pyrazin-8-yl)amino)benzamide formate] to `CCc1cc(Nc2nccn3c(-c4c[nH]nc4C(F)(F)F)cnc23)ccc1C(=O)NC1CNC1` [Example 515, N-(azetidin-3-yl)-2-ethyl-4-((3-(3-(trifluoromethyl)-1H-pyrazol-4-yl)imidazo[1,2-a]pyrazin-8-yl)amino)benzamide formate], the IC90 rises from 0.15 µM to 0.49 µM (3.3-fold).

In the case of `CCc1cc(Nc2nccn3c(-c4c[nH]nc4C(F)(F)F)cnc23)ccc1C(=O)NC1CC2(CNC2)C1` [Example 514, 2-ethyl-N-(2-azaspiro[3.3]heptan-6-yl)-4-((3-(3-(trifluoromethyl)-1H-pyrazol-4-yl)imidazo[1,2-a]pyrazin-8-yl)amino)benzamide formate], the IC90 is reported as 0.803 µM.

same assay, conditions: Acinetobacter baumannii, ATCC17961, 16 h, strain ATCC 17961, OD600 growth over 16 h, read-out: A. baumannii ATCC 17961 IC90

With `O=C(c1ccc(Nc2nccn3c(-c4c[nH]nc4C(F)(F)F)cnc23)cc1Cl)N1CCN(C(=O)[C@H]2[C@@H]3CNC[C@@H]32)CC1` [Example 516, (4-((1R,5S,6r)-3-azabicyclo[3.1.0]hexane-6-earbonyl)piperazin-1-yl) (2-chloro-4-((3-(3-(trifluoromethyl)-1H-pyrazol-4-yl)imidazo[1,2-a]pyrazin-8-yl)amino)phenyl)methanone formate] the IC90 was 0.14 µM.
